Assay [1] concerns panelists. Briefly: Example 1 paired taste test: panelists select the more bitter sample. It counts as in vivo. Here is the method: The sample was tested within 24 hours at room temperature.
Taste tests were carried out with 7-9 panelists and run singlet to triplet.

The test system of assay [2] is panelists. Kind of assay: Example 2 paired sensory test: higher licorice flavor. The following applies: Table 7; Sample A = 400 ppm Siamenoside I alone vs Sample B (blend, 400 ppm total).
The conditions of assay [3]: cited from earlier work.
Assay [4] relates to panelists. Kind of assay: Example 2 paired sensory test: more bitter sample. The following applies: Table 6. Format: in vivo.
The subject of assay [5] is panelists. Briefly: Example 2 paired sensory test: higher syrupy mouthfeel. The following applies: Table 10; Sample A = 400 ppm Siamenoside I alone vs Sample B (blend, 400 ppm total).
The test system of assay [6] is panelists. Briefly: Example 3 paired sensory test: higher licorice flavor. Format: in vivo. The note with it: Table 14; Sample A = 500 ppm Siamenoside I alone vs Sample B (tri-blend of same row, 500 ppm total). Here is the method:
Samples were tested within 7 days.
Sensory tests were carried out with 8-12 panelists. Each pair of mogroside blends was evaluated by each panelist in triplet.

For assay [7], the system named is panelists. Briefly: Example 3 paired sensory test: more bitter sample. Format: in vivo. As to the method:
Samples were tested within 7 days. […] Each pair of mogroside blends was evaluated by each panelist in triplet.

For the molecule `C[C@H](CC[C@@H](O[C@@H]1O[C@H](CO[C@@H]2O[C@H](CO)[C@@H](O)[C@H](O)[C@H]2O)[C@@H](O)[C@H](O)[C@H]1O[C@@H]1O[C@H](CO)[C@@H](O)[C@H](O)[C@H]1O)C(C)(C)O)[C@H]1CC[C@@]2(C)[C@@H]3CC=C4[C@@H](CC[C@H](O[C@@H]5O[C@H](CO)[C@@H](O)[C@H](O)[C@H]5O)C4(C)C)[C@]3(C)[C@H](O)C[C@]12C` [Siamenoside I], the “Number of Panelists that chose A as more bitter” value in the assay on panelists [1] (Table 1, Sample A = 400 ppm siamenoside alone vs Sample B (blend of same row, 400 ppm total mogroside), filtered water) came to 15; with panelists [1] (Table 2, Sample A = 400 ppm Siamenoside I alone vs Sample B (blend, 400 ppm total)) it was 6; with panelists [1] (Table 3, Sample A = 400 ppm Siamenoside I alone vs Sample B (blend, 400 ppm total)), 10; in the assay with panelists [1] (Table 3, Sample A = 500 ppm Siamenoside I alone vs Sample B (blend, 500 ppm total)), 7; in the assay with panelists [4] (Sample A = 400 ppm Siamenoside I alone vs Sample B (blend, 400 ppm total)), 17; in the assay on panelists [4] (Sample A = 500 ppm Siamenoside I alone vs Sample B (blend, 500 ppm total), Sample B with 400 ppm of Siamenoside I), 12. Moreover, the “Number of Panelists that chose A as more bitter” value in the assay on panelists [4] (Sample A = 500 ppm Siamenoside I alone vs Sample B (blend, 500 ppm total), Sample B with 450 ppm of Siamenoside I) was 15; in the assay with panelists [4] (Sample A = 500 ppm Siamenoside I alone vs Sample B (blend, 500 ppm total), Sample B with 487.5 ppm of Siamenoside I), 13. Besides, in the assay on panelists [2], the “Number of Panelist that chose A as higher licorice flavor” value turned out to be 20. In assay [3] (WO 2018213683 A1), the “taste balance compared with mogroside V” value was “better balance in sweetness, bitterness, sweet linger, astringency, and mouthfeel than mogroside V”. In assay [3] (high purity, concentrations required to achieve a sucrose equivalence to 10° Brix), the “sensory properties at high concentrations” value is “significant off-tastes such as licorice, metallic and bitter tastes, as well as sweetness lingering and bitter lingering”. The “Number of Panelist to choose A as higher syrupy mouthfeel” value in the assay on panelists [5] is listed as 7. The “Number of Panelist to choose A as higher licorice flavor” value in the assay on panelists [6] amounted to 23. Besides, the “Number of Panelist to choose A as more bitter” value in the assay on panelists [7] (Table 11, Sample A = 500 ppm Siamenoside I alone vs Sample B (tri-blend, 500 ppm total)) is 19; in the assay with panelists [7] (Table 13, Sample A = 500 ppm Siamenoside I alone vs Sample B (blend, 500 ppm total)), 16.
